One data set has as its system legionella bacteria. The class given is cell-based. As to conditions: initial 10^7 CFU/100 mL, after 24 hours, 36° C., pH 7.0.
The format of data set [1] is physicochemical. The following applies: pH 7.

The text below walks through data of patent US10765115B2 (priority 2015, dated 2020).

Compound `Cn1sc(Cl)cc1=O` [Sample 11, 5-chloro-2-methyl-4-isothiazoline-3-one] displayed a Sterilizing rate in the data set on legionella bacteria of 100%. Further, in data set [1], the “Residual concentration Cl2 (monochlorosulfamic acid as Cl2)” value (shortened to “Residual concentration Cl2”) is 0 mg/L and the “Residual concentration Cl-MIT” value was 2.1 µg/L.

Take `Cn1sc(Cl)cc1=O` [Sample 17, 5-chloro-2-methyl-4-isothiazoline-3-one]: in data set [1], the “Residual concentration Cl2” value was determined as 0 mg/L and the “Residual concentration Cl-MIT” value was found to be 600.0 µg/L.

Turning to `Cn1sc(Cl)cc1=O` [Sample 19, 5-chloro-2-methyl-4-isothiazoline-3-one], in data set [1], the “Residual concentration Cl2” value worked out at 0 mg/L and the “Residual concentration Cl-MIT” value is 1500.0 µg/L.
